Laboratory results: PMC6547681 (Nature Communications, 2019)
Several values for one entry are separate records, joined by “and”; a condition that tells them apart may be missing. Equal entries are not always repeated. Where two headings read alike, the source gives them in different places.

Test system: BCL-2 WT
Experiment: Steady-state competition SPR against immobilised BIMBH3 peptide, BCL-2 WT
Format: binding, human
Details: for Ki: BCL-2 WT
Protocol: SPR experiments were performed as previously described. […] The lowest concentrations used in direct binding experiments were 1 nM for BIAcore 4000 and 0.1 nM for BIAcore S200 instruments, concentrations below these were below the sensitivity thresholds for the instruments. […] Direct binding experiments were fitted to a 1:1 binding site kinetic model, fitting on and off rates, in BIAevaluation software. For competition experiments steady-state responses were determined in BIAevaluation software according to the software defaults in affinity evaluation mode averaging responses for 5 sec. […] All affinity measurements were performed in at least two independent experiments using independent protein preparations.

O=C(c1cc(-c2cc3c(cc2C(=O)N2Cc4ccccc4C[C@H]2CN2CCOCC2)OCO3)n2c1CCCC2)N(c1ccccc1)c1ccc(O)cc1 [S55746]
Raw data values in Figure 3f (SPR response) (S55746 concentration 40, BCL-2 concentration 40 nM, independent experiment 2): 135.922
Raw data values in Figure 3f (SPR response) (S55746 concentration 40, BCL-2 concentration 40 nM, independent experiment 3): 43.3243
Raw data values in Figure 3f (SPR response) (S55746 concentration 40, BCL-2 concentration 50 nM, independent experiment 1): 78.7968
Raw data values in Figure 3f (SPR response) (S55746 concentration 40, BCL-2 concentration 50 nM, independent experiment 3): 49.1674
Raw data values in Figure 3f (SPR response) (S55746 concentration 40, BCL-2 concentration 60 nM, independent experiment 1): 84.5822
Raw data values in Figure 3f (SPR response) (S55746 concentration 40, BCL-2 concentration 60 nM, independent experiment 3): 58.6901
Raw data values in Figure 3f (SPR response) (S55746 concentration 40, BCL-2 concentration 70 nM, independent experiment 1): 88.5391
Raw data values in Figure 3f (SPR response) (S55746 concentration 40, BCL-2 concentration 70 nM, independent experiment 3): 64.9952
Raw data values in Figure 3f (SPR response) (S55746 concentration 40, BCL-2 concentration 80 nM, independent experiment 1): 89.9035
Raw data values in Figure 3f (SPR response) (S55746 concentration 40, BCL-2 concentration 80 nM, independent experiment 3): 69.0967
Raw data values in Figure 3f (SPR response) (S55746 concentration 40, BCL-2 concentration 100 nM, independent experiment 1): 92.2307
Raw data values in Figure 3f (SPR response) (S55746 concentration 40, BCL-2 concentration 100 nM, independent experiment 3): 75.0006
Raw data values in Figure 3f (SPR response) (S55746 concentration 40, BCL-2 concentration 150 nM, independent experiment 1): 94.9838
Raw data values in Figure 3f (SPR response) (S55746 concentration 40, BCL-2 concentration 150 nM, independent experiment 3): 84.1638
Raw data values in Figure 3f (SPR response) (S55746 concentration 40, BCL-2 concentration 200 nM, independent experiment 1): 96.8989
Raw data values in Figure 3f (SPR response) (S55746 concentration 40, BCL-2 concentration 200 nM, independent experiment 3): 89.8321
Raw data values in Figure 3f (SPR response) (S55746 concentration 60, BCL-2 concentration 10 nM, independent experiment 1): 3.3753
Raw data values in Figure 3f (SPR response) (S55746 concentration 60, BCL-2 concentration 10 nM, independent experiment 3): 1.1233
Raw data values in Figure 3f (SPR response) (S55746 concentration 60, BCL-2 concentration 20 nM, independent experiment 1): 7.929
Raw data values in Figure 3f (SPR response) (S55746 concentration 60, BCL-2 concentration 20 nM, independent experiment 3): 2.648
Raw data values in Figure 3f (SPR response) (S55746 concentration 60, BCL-2 concentration 30 nM, independent experiment 1): 13.853
Raw data values in Figure 3f (SPR response) (S55746 concentration 60, BCL-2 concentration 30 nM, independent experiment 3): 4.966
Raw data values in Figure 3f (SPR response) (S55746 concentration 60, BCL-2 concentration 40 nM, independent experiment 1): 26.5524
Raw data values in Figure 3f (SPR response) (S55746 concentration 60, BCL-2 concentration 40 nM, independent experiment 3): 9.938
Raw data values in Figure 3f (SPR response) (S55746 concentration 60, BCL-2 concentration 50 nM, independent experiment 1): 51.4643
Raw data values in Figure 3f (SPR response) (S55746 concentration 60, BCL-2 concentration 50 nM, independent experiment 3): 23.6574
Raw data values in Figure 3f (SPR response) (S55746 concentration 60, BCL-2 concentration 60 nM, independent experiment 1): 75.6075
Raw data values in Figure 3f (SPR response) (S55746 concentration 60, BCL-2 concentration 60 nM, independent experiment 3): 44.7291
Raw data values in Figure 3f (SPR response) (S55746 concentration 60, BCL-2 concentration 70 nM, independent experiment 1): 83.0032
Raw data values in Figure 3f (SPR response) (S55746 concentration 60, BCL-2 concentration 70 nM, independent experiment 3): 55.5781
Raw data values in Figure 3f (SPR response) (S55746 concentration 60, BCL-2 concentration 80 nM, independent experiment 1): 87.1926
Raw data values in Figure 3f (SPR response) (S55746 concentration 60, BCL-2 concentration 80 nM, independent experiment 3): 62.5167
Raw data values in Figure 3f (SPR response) (S55746 concentration 60, BCL-2 concentration 100 nM, independent experiment 1): 90.81
Raw data values in Figure 3f (SPR response) (S55746 concentration 60, BCL-2 concentration 100 nM, independent experiment 3): 70.2062
Raw data values in Figure 3f (SPR response) (S55746 concentration 60, BCL-2 concentration 150 nM, independent experiment 1): 94.4799
Raw data values in Figure 3f (SPR response) (S55746 concentration 60, BCL-2 concentration 150 nM, independent experiment 3): 81.267
Raw data values in Figure 3f (SPR response) (S55746 concentration 60, BCL-2 concentration 200 nM, independent experiment 1): 96.2757
Raw data values in Figure 3f (SPR response) (S55746 concentration 60, BCL-2 concentration 200 nM, independent experiment 3): 87.9958
Raw data values in Figure 3f (SPR response) (S55746 concentration 80, BCL-2 concentration 1 nM, independent experiment 2): 1.2215
Raw data values in Figure 3f (SPR response) (S55746 concentration 80, BCL-2 concentration 3 nM, independent experiment 2): 2.493
Raw data values in Figure 3f (SPR response) (S55746 concentration 80, BCL-2 concentration 4 nM, independent experiment 2): 3.639
Raw data values in Figure 3f (SPR response) (S55746 concentration 80, BCL-2 concentration 6 nM, independent experiment 2): 4.673
Raw data values in Figure 3f (SPR response) (S55746 concentration 80, BCL-2 concentration 8 nM, independent experiment 2): 5.6951
Raw data values in Figure 3f (SPR response) (S55746 concentration 80, BCL-2 concentration 9 nM, independent experiment 2): 6.782
Raw data values in Figure 3f (SPR response) (S55746 concentration 80, BCL-2 concentration 11 nM, independent experiment 2): 7.791
Raw data values in Figure 3f (SPR response) (S55746 concentration 80, BCL-2 concentration 12 nM, independent experiment 2): 8.945
Raw data values in Figure 3f (SPR response) (S55746 concentration 80, BCL-2 concentration 16 nM, independent experiment 2): 11.2715
Raw data values in Figure 3f (SPR response) (S55746 concentration 80, BCL-2 concentration 24 nM, independent experiment 2): 17.5573
Raw data values in Figure 3f (SPR response) (S55746 concentration 80, BCL-2 concentration 40 nM, independent experiment 2): 30.3087
Ki (read-out: S55746 KI (mean), competition vs BIMBH3 SPR surface, mean ± SD, n ≥ 2): 0.36 nM and 0.356 nM
Ki (read-out: S55746 KI, single independent experiments, independent experiments 1-3): 0.358 nM and 0.372 nM and 0.338 nM
